# Source: PubChem BioAssay (NCI)
# “And” between values parts separate entries of the source, which are not always exact repeats. Equal entries are not always repeated.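 Protocol summary: plate cells (96-well), add compound at 5 concentrations, incubate 48 h, interpolate endpoints linearly. GI50 marks 50% less growth. TGI is the concentration that stops growth completely.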
# How the values were obtained:
# Experiment in all cases: NCI-60 cell line screen, 48 h
# 786-0 renal = system: 786-0 renal
# A549 NSCLC = system: A549 NSCLC
# HCC-2998 colon = system: HCC-2998 colon
# MDA-MB-231 breast = system: MDA-MB-231 breast
# NCI-H23 lung = system: NCI-H23 lung
# NCI-H522 lung = system: NCI-H522 lung
# OVCAR-3 ovarian = system: OVCAR-3 ovarian
# RXF 393 renal = system: RXF 393 renal
# SF-295 CNS = system: SF-295 CNS
# SK-MEL-2 melanoma = system: SK-MEL-2 melanoma
Structure (SMILES),GI50 (786-0 renal) [µM],TGI (786-0 renal),GI50 (A549 NSCLC) [µM],TGI (A549 NSCLC),GI50 (HCC-2998 colon) [µM],TGI (HCC-2998 colon),GI50 (MDA-MB-231 breast) [µM],TGI (MDA-MB-231 breast) [µM],GI50 (NCI-H23 lung) [µM],TGI (NCI-H23 lung),GI50 (NCI-H522 lung) [µM],TGI (NCI-H522 lung),GI50 (OVCAR-3 ovarian) [µM],TGI (OVCAR-3 ovarian),GI50 (RXF 393 renal) [µM],TGI (RXF 393 renal) [µM],GI50 (SF-295 CNS) [µM],TGI (SF-295 CNS),GI50 (SK-MEL-2 melanoma) [µM],TGI (SK-MEL-2 melanoma)
c1ccc2c(c1)nc(NCCN1CCNCC1)c1c3ccccc3[nH]c21,0.342,1.6 µM,0.206,1.21 µM,0.425,1.68 µM,0.676,2.28,0.666,2.03 µM,0.22,1.07 µM,0.413,2.51 µM,0.438,2.04,0.618,2.21 µM,1.41,2.89 µM
COc1ccc(S(=O)(=O)N/N=C/C(=O)O)cc1,,971 µM,,> 1250 µM,,> 1250 µM,,> 1250,,867 µM,,644 µM,,1160 µM,,1150,,1070 µM,,826 µM
COc1ccc2c(c1O)[C@@]13C=C(O)C(=O)C=C1[C@@H](C2)N(C)CC3,,> 100 µM,,> 100 µM,,> 100 µM,,> 100,,> 100 µM,,> 100 µM,,> 100 µM,,> 100,,> 100 µM,,> 100 µM
COc1cc[nH]c1/C=C1\C(=O)Nc2ccc(F)c(C#CC3(O)CCOCC3)c21,0.824,> 25 µM,0.536,2.25 µM,0.676,2.59 µM,0.885,> 25,0.609,2.61 µM,1.08,4.53 µM,0.911,2.25 µM,0.305,1.01,0.849,16.4 µM,0.47,2.14 µM
NC(Cc1nn[nH]n1)C(=O)O (stereo unspecified),,> 100 µM,,> 100 µM,,,,> 100,,> 100 µM,,> 100 µM,,> 100 µM,,> 100,,> 100 µM,,> 100 µM
COC(=O)c1cc(Nc2ccc(O)c3c2C(=O)c2c([N+](=O)[O-])ccc(O)c2C3=O)cc(C(=O)OC)c1,30.6,> 100 µM,1.74,4.05 µM,4.39,> 100 µM,13.8,> 100,,,4.07,28.3 µM,3.42,21.3 µM,5.09,> 100,21.8,> 100 µM,4.05,> 100 µM
CC1(CC(=O)O)OC2CCCCCC2O1 (stereo unspecified) (tested in a mixture with another compound),,> 100 µM,,> 100 µM,,,,> 100,,> 100 µM,,> 100 µM,,> 100 µM,,> 100,,> 100 µM,,> 100 µM
COc1c(O)c(OC)c(C(=O)/C=C/c2ccccc2)c(O)c1OC,,> 100 µM,,,,> 100 µM,,72,,,,31.9 µM,,51.3 µM,,,,> 100 µM,,61.2 µM
COc1cc(C(c2cc3c(cc2O)OCO3)N2CCCC2)cc(OC)c1OC (stereo unspecified),,28.8 µM,,48.9 µM,,88.1 µM,,31.3,,33.1 µM,,11.5 µM,,34.9 µM,,,,36 µM,,40 µM
Cc1nnc([S-])s1.[Au+].c1ccc([PH+](c2ccccc2)c2ccccc2)cc1,1.78,3.32 µM,,,1.83,3.36 µM,1.65,3.05,,,0.692,3.17 µM,1.73,3.14 µM,1.26,2.53,1.74,3.21 µM,1.64,3.11 µM
O=C1c2c(O)cccc2C(C(=O)CCCCC(=O)C2c3cccc(O)c3C(=O)c3c(O)cccc32)c2cccc(O)c21,4.83,5.53 µM and 10.7 µM,1.1,1.06 µM and 2.43 µM,1.07,2.63 µM and 3.14 µM,,0.9,1.25,1.56 µM and 2.59 µM,1.25,1.07 µM and 2.92 µM,1.39,1.3 µM and 2.53 µM,,,0.672,4.57 µM and 1.49 µM,1.24,1.22 µM and 2.46 µM
COc1ccc(C2=CC(c3cc(OC)c(OC)c(OC)c3)n3ncnc3N2)cc1 (stereo unspecified),0.0448,> 100 µM,0.0858,30.3 µM,0.24,> 100 µM,0.193,83.5,0.0875,42 µM,0.0324,0.654 µM,0.0286,0.0764 µM,,,0.0228,0.0742 µM,16.9,71.1 µM
O=C(OCc1ccccc1CN1CCOCC1)c1ccc(Br)cc1,,> 100 µM,,> 100 µM,,> 100 µM,,> 100,,> 100 µM,,> 100 µM,,83.2 µM,,> 100,,,,> 100 µM
CCCCCCCCCCCCCCCC[N+]1(CC)CCCC1,1.18,2.61 µM,1.07,2.59 µM,,,0.589,2.19,,,,,0.478,1.65 µM,,,,,,
C[C@@H](NC(=O)Cc1cc(F)cc(F)c1)C(=O)N[C@@]1(C)N=C(c2ccccc2)c2ccccc2N(C)C1=O,> 100,> 100 µM,66.1,> 100 µM,,,15.9,> 96.6,43.4,> 100 µM,69.2,> 100 µM,30,> 100 µM,30.7,> 100,42.8,> 100 µM,> 100,> 100 µM
CN1CCCC1c1cccnc1.O=C(O)c1ccccc1O.O=C([O-])c1ccccc1[OH2+].O=C([O-])c1ccccc1[OH2+].O=C([O-])c1ccccc1[OH2+].[Mn+2] (stereo unspecified),> 100,> 100 µM,> 100,> 100 µM,,,> 100,> 100,> 100,> 100 µM,12.1,27.7 µM,11.4,39.3 µM,> 100,> 100,> 100,> 100 µM,> 100,> 100 µM
